Consider 7 compounds from article PMC3750009, “Non-peptidic Cruzain Inhibitors with Trypanocidal Activity Discovered by Virtual Screening and In Vitro Assay” (PLoS Neglected Tropical Diseases, 2013).

Each structure is given as a SMILES string. Read-outs that look alike come from different tables or passages of the source.

Data set [1] concerns the target T1, cruzain (Trypanosoma cruzi, UniProt P25779).
T1 construct: Recombinant cruzain enzyme was expressed and purified as previously described; made in house
Kind of data set: cruzain enzyme assay, IC50 determination (Z-FR-MCA fluorescence). It is filed as biochemical. The note with it: for IC50: Neq42 analogs, SAR, unit inferred, read-out: IC50, cruzain inhibition (Figure 6). On the procedure:
(§1) Recombinant cruzain enzyme was expressed and purified as previously described. The activity of the cruzain enzyme was measured and quantified through active-site titration with the irreversible inhibitor E-64, as described previously. Cathepsin L enzyme and all reagents used for buffer preparation were purchased from Sigma-Aldrich (St. Louis, MO, USA). The compounds screened against the enzymes were purchased from Enamine (Kiev, Ukraine), Chemdiv (San Diego, CA, USA), Asinex (Moscow, Russia) and IBScreen (Moscow, Russia) and had more than 95%purity, according to these suppliers. All experiments were carried out with freshly made solutions.
The activity of cruzain was measured in 100 mM phosphate buffer, 100 mM NaCl, 10 mM EDTA, DMSO (5.0% v/v), Triton X-100 (0.01% v/v) and 5.0 mM DTT at pH 6.3. The activity of cathepsin L was measured in 100 mM sodium acetate buffer, 100 mM NaCl, 10 mM EDTA, DMSO (5.0% v/v), Triton X-100 (0.01% v/v) and 5.0 mM DTT at pH 5.5. Both assays were carried out with 2 nM of the respective enzymes and 2 µM of the substrate Z-FR-MCA.
The reaction started by the addition of the substrate Z-FR-MCA was monitored by recording the emission at wavelength 460 nm while exciting at 360 nm. Fluorescence was measured using a Synergy HT fluorimeter microplate reader (Biotek). The percentage of inhibition was calculated according to following equation: [drawing 1] where vi and v0 are the initial velocities determined in presence and absence of inhibitors, respectively. The activity of enzyme in the presence of inhibitors was measured in 11 different concentrations in order to obtain the dose-response curves, which were analyzed using the Origin 7.0 program to determine the IC50 values. All experiments were repeated at least in duplicate.

Data set [2] deals with T. cruzi Tulahuen lacZ strain. Kind of data set: in vitro trypanocidal activity, infected LLC-MK2 cells, CPRG readout. Format: cell-based, Trypanosoma cruzi. The note with it: for IC50: Trypanosoma cruzi. As to the method: In vitro trypanocidal activity of the compounds was evaluated against amastigote forms of Tulahuen strain that was genetically modified to express β-galactosidase gene from E. coli (lacZ). A monkey kidney cell strain (LLC-MK2 - ATCC) was resuspended in RPMI medium without phenol red (Gibco-BRL Life Technologies, Grand Island, NY) containing 10% fetal bovine serum (Life Technologies Inc., Bethesda, MD) and antibiotics (Sigma Chemical Co., St. Louis) at 2×10^3 cells/well and were cultured in 96-well plates for 24 h. The cells were infected with 1×10^4 trypomastigote forms of T. cruzi Tulahuen strain, and after 24 h compounds were added with different concentrations (250, 125, 62.5, 31.25, 15.6, 7.8, 3.9 and 1.95 µM). After 4 days of culture, 50 µL of PBS containing 0.5% of Triton X-100 and 100 µM Chlorophenol Red-β-D-galactoside (CPRG - Sigma) were added. Plates were incubated at 37°C for 4 h and absorbance was read at 570 nm. Benznidazole (N-benzyl-2-nitro-1-imidazolacetamide), in the same concentrations as above was used as a reference trypanocidal drug (positive control), [41].

Details of data set [3]: method as in PMID 19620707. The note with it: pre-clinical trials ref 13; cited from earlier work.
The test system of data set [4] is Chagas disease. Details: method as in PMID 19620707. The note with it: mice and dogs ref 13; cited from earlier work.
The nature of data set [5]: mammalian cell cytotoxicity, propidium iodide flow cytometry. Format: cell-based, mice. The note with it: C57BL/6, mouse, primary spleen cells, mouse spleen cells, 24 h; read-out: Cytotoxic IC50. As to the method:
(§2) Mammalian cell cytotoxicity was evaluated using the protocol previously reported. Spleen cells from C57BL/6 mice were isolated by mechanical dissociation, followed by incubation for 5 min with red blood cell lysis buffer (one part of 0.17 M Tris–HCl [pH 7.5] and nine parts of 0.16 M ammonium chloride). The cells were washed and suspended in RPMI 1640 medium (Gibco-BRL Life Technologies, Grand Island, NY) supplemented with 10% fetal bovine serum (Life Technologies Inc., Bethesda, MD) and antibiotics (Sigma). The cell suspension was cultured in flat-bottom 96-well plates at 5×10^5 cells per well with different concentrations of the tested compounds and incubated at 37°C in a humidified atmosphere of 5% CO2 for 24 h. Tween 20 at 0.5% was used as cell death positive control. To analyze cytotoxicity, cells were harvested, incubated with 10 µg mL^−1 propidium iodide (Sigma) and after 15 min data were acquired using a FACSCantoII (Becton-Dickinson Immunocytometry System Inc., San Jose, CA, USA). Data analysis was performed using FlowJo software (Ashland, OR, USA). The range of concentrations used for assaying cytotoxicity was 250, 125, 62.5, 31.25, 15.6, 7.8, 3.9, and 1.95 (µM).

Data set [6] relates to Spleen cells from C57BL/6 mice. The data set is described as above. Format: cell-based. The note with it: for IC50: mouse spleen cells, 24 h, read-out: Cytotoxic IC50; for cytotoxicity ratio (IC50(cyto)/IC50)(T. cruzi): spleen cell IC50 over T. cruzi IC50. On the procedure: as §2
Data set [7] relates to Chagas disease. Details: method as in PMID 19900395. The note with it: acute phase ref 5; cited from earlier work.
Data set [8] has as its target T1, cruzain. In words: cruzain affinity constant (Ki) and mechanism determination, Michaelis-Menten curves. Format: biochemical. The note with it: pH 6.3, 0.01% Triton X-100, inhibitor 30, 50 and 70 µM. On the procedure: as §1
(§3) The activity of cruzain was measured in 100 mM phosphate buffer, 100 mM NaCl, 10 mM EDTA, DMSO (5.0% v/v), Triton X-100 (0.01% v/v) and 5.0 mM DTT at pH 6.3. The activity of cathepsin L was measured in 100 mM sodium acetate buffer, 100 mM NaCl, 10 mM EDTA, DMSO (5.0% v/v), Triton X-100 (0.01% v/v) and 5.0 mM DTT at pH 5.5. […]
(§4) The Michaelis-Menten curves were determined in the absence and presence of 30, 50 and 70 µM respectively of each inhibitor. […] The reaction was started and monitored as described above. The mechanisms of inhibition and K i values were determined using the kinetic module of SigmaPlot 10.0 by adjusting the velocities into the competitive, non-competitive and uncompetitive modes. […]

Data set [9] addresses T2, cathepsin L (Homo sapiens, UniProt P07711).
T2 construct: Cathepsin L enzyme and all reagents used for buffer preparation were purchased from Sigma-Aldrich; purchased Sigma-Aldrich (St. Louis, MO, USA)
Kind of data set: cathepsin L enzyme assay, IC50 determination (Z-FR-MCA fluorescence). Format: biochemical. The note with it: pH 5.5, 0.01% Triton X-100, 2 nM enzyme, 2 µM Z-FR-MCA. As to the method:
as §1, §3
The reaction started by the addition of the substrate Z-FR-MCA was monitored by recording the emission at wavelength 460 nm while exciting at 360 nm. Fluorescence was measured using a Synergy HT fluorimeter microplate reader (Biotek). The percentage of inhibition was calculated according to following equation: [drawing 1] where vi and v0 are the initial velocities determined in presence and absence of inhibitors, respectively. […]

Data set [10] concerns the target T2, cathepsin L. In words: cathepsin L affinity constant (Ki) determination, Michaelis-Menten curves. The note with it: pH 5.5, 0.01% Triton X-100, inhibitor 30, 50 and 70 µM. It is filed as biochemical. As to the method: as §1, §3, §4
[11] abbreviates: LLC-MK2, 96 h, Tulahuen lacZ strain, 4 days of culture, read-out: Trypanocidal activity IC50.
The mark [12] stands for this setting: TULAHUEN, LLC-MK2, average for compounds Neq165, Neq172, Neq176 and Neq177, read-out: trypanocidal pIC50 on average (converted).
Where [13] appears, read: LLC-MK2, Tulahuen lacZ strain, read-out: trypanocidal pIC50 (converted).

By Ki is commonly meant a measure of affinity in units of concentration, obtained from inhibition or displacement.

T1 sequence (P25779 123-337 limits assumed): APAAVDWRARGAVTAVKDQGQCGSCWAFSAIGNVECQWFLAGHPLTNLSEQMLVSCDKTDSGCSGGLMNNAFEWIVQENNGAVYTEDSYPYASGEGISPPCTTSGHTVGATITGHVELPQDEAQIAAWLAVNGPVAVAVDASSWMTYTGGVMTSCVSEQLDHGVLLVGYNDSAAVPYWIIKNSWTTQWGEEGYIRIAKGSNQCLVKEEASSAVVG
T2 sequence (P07711 114-333): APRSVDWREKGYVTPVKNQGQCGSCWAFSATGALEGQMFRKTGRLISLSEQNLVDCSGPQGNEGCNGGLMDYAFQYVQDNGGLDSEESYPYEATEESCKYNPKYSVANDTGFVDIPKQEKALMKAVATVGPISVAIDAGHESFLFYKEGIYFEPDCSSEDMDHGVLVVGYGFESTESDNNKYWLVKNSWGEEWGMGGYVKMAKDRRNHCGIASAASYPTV

In the case of `Cc1nnc(SCC(=O)Nc2sccc2C(N)=O)n1Cc1ccccc1` [Neq165], the IC50 was 31.3 ± 1.2 µM at cruzain [1], 153.4 ± 0.6 µM in [2] (setting [11]) and around 158 µM in data set [2] (setting [12]).

For the compound `CN1CCN(C(=O)N[C@@H](Cc2ccccc2)C(=O)N[C@H](/C=C/S(=O)(=O)c2ccccc2)CCc2ccccc2)CC1` [Compound K11777], in data set [3], the mutagenicity entry is on record as “non-mutagenic”, the pharmacokinetic profile result is “acceptable pharmacokinetic profile” and the tolerability entry is listed as “well tolerated”. The “efficacy in models of acute and chronic Chagas disease” value in the data set on Chagas disease [4] is recorded as “demonstrated efficacy”.

As to `NC(=O)c1ccsc1NC(=O)CSc1nnc[nH]1` [Neq176], the IC50 is 68.5 ± 3 µM at cruzain [1], 108 ± 52.2 µM in [2] (setting [11]) and around 158 µM in data set [2] (setting [12]). The “ligand efficiency (LE)” value on cruzain [1] (from cruzain potency) turned out to be 0.33 kcal mol^-1 atom^-1. In addition, in [5], the IC50 at 24 h is above 250 µM.

Consider `NC(=O)c1ccsc1NC(=O)COC(=O)[C@@H](Cc1ccccc1)NC(=O)OCc1ccccc1` [Neq172], for which the IC50 is 73.1 ± 4.9 µM at cruzain [1], 166 ± 12.9 µM in [2] (setting [11]), around 158 µM in [2] (setting [12]) and 23.1 ± 2.7 µM in [6]. For the same compound, in [5], the IC50 at 24 h came to 23 µM.

On to `O=C(Cn1ccnc1[N+](=O)[O-])NCc1ccccc1` [Bz, N-benzyl-2-nitro-1-imidazolacetamide, reference compound], for which the results for the IC50 in [2] (setting [11]) and in data set [2] (setting [13]) were 64.3 ± 12.3 µM and 63.1 µM, respectively. For the same compound, the IC50 at 24 h in data set [5] is above 500 µM. Besides, the “cytotoxicity ratio (IC50(cyto)/IC50)(T. cruzi)” value in [6] is recorded as 8. Besides, the successful cure result in the data set on Chagas disease [7] is given as “up to 80%”.

Turning to `CC(Sc1nncn1-c1ccccc1)C(=O)Nc1sccc1C(N)=O` (stereo not drawn) [Neq177], the IC50 on cruzain [1] is 48.9 ± 10 µM; in [2] (setting [11]), 137 ± 14.4 µM; in data set [2] (setting [12]), around 158 µM. In data set [5], the IC50 at 24 h was above 250 µM.

In the case of `NC(=O)c1ccsc1NC(=O)CSc1nnc(CN2CCCCC2)n1Cc1ccccc1` [Neq42], the IC50 is 21.6 ± 5.4 µM on cruzain [1]; 35.1 ± 11 µM on cathepsin L [9]; 10.6 ± 0.1 µM in [2] (setting [11]); 12.6 µM in data set [2] (setting [13]); 49.9 ± 2.7 µM in data set [6]. Moreover, the inhibition constant Ki at cruzain [8] is 18.5 ± 5.5 µM; at cathepsin L [10], 35.6 ± 8.2 µM. In addition, in data set [2] (single dose of 250 µM, Tulahuen lacZ strain), the preliminary trypanocidal activity result is “active”. Further, in data set [5], the IC50 at 24 h turned out to be 50 µM. The “cytotoxicity ratio (IC50(cyto)/IC50)(T. cruzi)” value in [6] amounted to 5.
